Results as given in PMC5931096, “A Phase I study of the novel immunomodulatory agent PG545 (pixatimod) in subjects with advanced solid tumours” (British Journal of Cancer, 2018).
“Also recorded” adds a separate entry of the source.

Experiment: Phase I dose-escalation: safety, tolerability, DLT and MTD of weekly 1-h IV infusion
Assay type: in vivo
Method: The study was an open-label, multicentre, phase 1 dose-escalation study using a 3 + 3 design. The primary objective was to determine the MTD of weekly administered PG545 via IV infusion. Secondary objectives were to characterize safety, tolerability, clinical activity, PK and PD biomarkers.
Patients continued treatment until disease progression, unacceptable toxicity or withdrawal (either voluntarily or investigator-decision).
All patients were assessed for safety, those who received at least one dose of PG545 were evaluated for efficacy. Safety assessment included the incidence of all adverse events (AEs), irrespective of relationship to study drug, according to the National Cancer Institute Common Terminology Criteria for Adverse Events, version 4.0, and the incidence of patients experiencing dose modifications and/or premature discontinuation of study drug. Dose-limiting toxicities (DLTs) used to determine the MTD were defined as occurring during Cycle 1 of treatment only and related to PG545 according to investigator assessment. If no DLT occurred in the first three subjects, the next three-subject cohort was enrolled at the next highest available dose level. If a single DLT occurred, an additional three subjects was enrolled at the same dose level. Dose escalation continued until two subjects of the cohort experienced a DLT; this was defined as the toxic dose level. The dose-escalation phase was completed and MTD determined by reducing the dose to the next lowest dose compared to the toxic dose and expanding this cohort to at least 6 subjects.

## CC(C)CCC[C@@H](C)[C@H]1CC[C@H]2[C@@H]3CC[C@H]4C[C@@H](O[C@@H]5O[C@H](COS(=O)(=O)O)[C@@H](O[C@H]6O[C@H](COS(=O)(=O)O)[C@@H](O[C@H]7O[C@H](COS(=O)(=O)O)[C@@H](O[C@H]8O[C@H](COS(=O)(=O)O)[C@@H](OS(=O)(=O)O)[C@H](OS(=O)(=O)O)[C@H]8OS(=O)(=O)O)[C@H](OS(=O)(=O)O)[C@H]7OS(=O)(=O)O)[C@H](OS(=O)(=O)O)[C@H]6OS(=O)(=O)O)[C@H](OS(=O)(=O)O)[C@H]5OS(=O)(=O)O)CC[C@]4(C)[C@H]3CC[C@]12C [PG545]
25 mg, N = 3
  Acute pulmonary oedema, related AE leading to discontinuation: 0 n (%)
  Acute pulmonary oedema, related serious AE: 0 n (%)
  Acute pulmonary oedema, related severe AE: 0 n (%)
  Blood cholesterol increased, related severe AE: 0 n (%)
  Blood cholesterol increased, treatment-related AE: 0 n (%)
  Blood pressure increased, related severe AE: 0 n (%)
  Chills, related AE leading to discontinuation: 0 n (%)
  Chills, related severe AE: 0 n (%)
  Chills, treatment-related AE: 0 n (%)
  Decreased appetite, treatment-related AE: 0 n (%)
  Diarrhoea, treatment-related AE: 0 n (%)
  Epistaxis, related AE leading to discontinuation: 0 n (%)
  Epistaxis, related serious AE: 0 n (%)
  Epistaxis, related severe AE: 0 n (%)
  Fatigue, related severe AE: 0 n (%)
  Fatigue, treatment-related AE: 0 n (%)
  Headache, treatment-related AE: 0 n (%)
  Hypercholesterolemia, treatment-related AE: 0 n (%)
  Hyperlipidaemia, related severe AE: 0 n (%)
  Hypertension, related AE leading to discontinuation: 0 n (%)
  Hypertension, related serious AE: 0 n (%)
  Hypertension, related severe AE: 0 n (%)
  Hypertension, treatment-related AE: 0 n (%)
  Hypovolaemia, related serious AE: 0 n (%)
  Infusion-related reaction, related serious AE: 0 n (%)
  Infusion-related reaction, related severe AE: 0 n (%)
  Infusion-related reaction, treatment-related AE: 0 n (%)
  Injection site reaction, treatment-related AE: 2 (67) n (%)
  Nausea, treatment-related AE: 0 n (%)
  Pyrexia, related AE leading to discontinuation: 0 n (%)
  Pyrexia, related serious AE: 0 n (%)
  Pyrexia, related severe AE: 0 n (%)
  Pyrexia, treatment-related AE: 0 n (%)
50 mg, N = 5
  Acute pulmonary oedema, related AE leading to discontinuation: 0 n (%)
  Acute pulmonary oedema, related serious AE: 0 n (%)
  Acute pulmonary oedema, related severe AE: 0 n (%)
  Blood cholesterol increased, related severe AE: 0 n (%)
  Blood cholesterol increased, treatment-related AE: 0 n (%)
  Blood pressure increased, related severe AE: 0 n (%)
  Chills, related AE leading to discontinuation: 1 (20) n (%)
  Chills, related severe AE: 1 (20) n (%)
  Chills, treatment-related AE: 1 (20) n (%)
  Decreased appetite, treatment-related AE: 2 (40) n (%)
  Diarrhoea, treatment-related AE: 1 (20) n (%)
  Epistaxis, related AE leading to discontinuation: 0 n (%)
  Epistaxis, related serious AE: 0 n (%)
  Epistaxis, related severe AE: 0 n (%)
  Fatigue, related severe AE: 1 (20) n (%)
  Fatigue, treatment-related AE: 2 (40) n (%)
  Headache, treatment-related AE: 0 n (%)
  Hypercholesterolemia, treatment-related AE: 0 n (%)
  Hyperlipidaemia, related severe AE: 0 n (%)
  Hypertension, related AE leading to discontinuation: 0 n (%)
  Hypertension, related serious AE: 0 n (%)
  Hypertension, related severe AE: 0 n (%)
  Hypertension, treatment-related AE: 1 (20) n (%)
  Hypovolaemia, related serious AE: 0 n (%)
  Infusion-related reaction, related serious AE: 0 n (%)
  Infusion-related reaction, related severe AE: 0 n (%)
  Infusion-related reaction, treatment-related AE: 0 n (%)
  Injection site reaction, treatment-related AE: 0 n (%)
  Nausea, treatment-related AE: 4 (80) n (%)
  Pyrexia, related AE leading to discontinuation: 1 (20) n (%)
  Pyrexia, related serious AE: 1 (20) n (%)
  Pyrexia, related severe AE: 1 (20) n (%)
  Pyrexia, treatment-related AE: 3 (60) n (%)
100 mg cohort
  Dose-limiting toxicities (DLTs): No DLTs were noted; also recorded: no further DLT observed
  Hypertension: not observed
100 mg, N = 6
  Acute pulmonary oedema, related AE leading to discontinuation: 0 n (%)
  Acute pulmonary oedema, related serious AE: 0 n (%)
  Acute pulmonary oedema, related severe AE: 0 n (%)
  Blood cholesterol increased, related severe AE: 0 n (%)
  Blood cholesterol increased, treatment-related AE: 1 (17) n (%)
  Blood pressure increased, related severe AE: 0 n (%)
  Chills, related AE leading to discontinuation: 0 n (%)
  Chills, related severe AE: 0 n (%)
  Chills, treatment-related AE: 0 n (%)
  Decreased appetite, treatment-related AE: 1 (17) n (%)
  Diarrhoea, treatment-related AE: 2 (33) n (%)
  Epistaxis, related AE leading to discontinuation: 0 n (%)
  Epistaxis, related serious AE: 0 n (%)
  Epistaxis, related severe AE: 0 n (%)
  Fatigue, related severe AE: 1 (17) n (%)
  Fatigue, treatment-related AE: 2 (33) n (%)
  Headache, treatment-related AE: 2 (33) n (%)
  Hypercholesterolemia, treatment-related AE: 2 (33) n (%)
  Hyperlipidaemia, related severe AE: 1 (17) n (%)
  Hypertension, related AE leading to discontinuation: 0 n (%)
  Hypertension, related serious AE: 0 n (%)
  Hypertension, related severe AE: 0 n (%)
  Hypertension, treatment-related AE: 0 n (%)
  Hypovolaemia, related serious AE: 1 (17) n (%)
  Infusion-related reaction, related serious AE: 0 n (%)
  Infusion-related reaction, related severe AE: 0 n (%)
  Infusion-related reaction, treatment-related AE: 0 n (%)
  Injection site reaction, treatment-related AE: 0 n (%)
  Nausea, treatment-related AE: 0 n (%)
  Pyrexia, related AE leading to discontinuation: 0 n (%)
  Pyrexia, related serious AE: 0 n (%)
  Pyrexia, related severe AE: 0 n (%)
